Calls of active or inactive are those of the source. No cut-off for these calls is given here.
Key:
Histone deacetylase 8 = target: T1, Histone deacetylase 8 (Homo sapiens, UniProt Q9BY41); experiment: Inhibition of full length recombinant human C-terminal His tagged HDAC8 expressed in baculovirus infected Sf9 insect cells using Ac-Leu-GlyLys (Tfa)-AMC as substrate preincubated for 5 mins followed by substrate addition and measured after 30 mins by fluorescence microtiter plate reader assay
T1 sequence (Q9BY41 whole entry): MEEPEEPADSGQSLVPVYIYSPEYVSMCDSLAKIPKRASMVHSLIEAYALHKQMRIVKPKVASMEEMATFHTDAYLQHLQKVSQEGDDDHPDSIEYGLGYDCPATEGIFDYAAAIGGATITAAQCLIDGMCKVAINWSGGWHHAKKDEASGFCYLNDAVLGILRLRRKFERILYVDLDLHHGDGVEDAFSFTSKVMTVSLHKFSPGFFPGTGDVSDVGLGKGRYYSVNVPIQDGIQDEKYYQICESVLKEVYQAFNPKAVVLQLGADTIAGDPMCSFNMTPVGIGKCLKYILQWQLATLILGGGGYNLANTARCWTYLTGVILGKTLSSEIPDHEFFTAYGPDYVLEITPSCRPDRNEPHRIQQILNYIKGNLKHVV

A549 = experiment: cells; assay type: functional, cell-based; conditions: Homo sapiens, A549, 48 h
Description: Antiproliferative activity against human A549 cells assessed as inhibition of cell proliferation measured after 48 hrs by MTT assay

B16-F10 [1] = experiment: Effect on acetyl-H3 expression level in mouse B16-F10 cells at 1 to 8 uM incubated for 6 hrs by Western blot analysis; assay type: functional, cell-based; conditions: dose 1-8 µM
[2] = Cytotoxicity against human Jurkat cells assessed as reduction in cell viability incubated for 72 hrs by CCK-8 assay
Jurkat [3] = experiment: Induction of apoptosis in human Jurkat T cells assessed as downregulation of Bcl-2 expression at 0.2 to 2 uM incubated for 6 hrs by Western blot analysis; assay type: functional, cell-based; conditions: dose 0.2-2 µM
Jurkat [4] = experiment: Induction of apoptosis in human Jurkat cells assessed as upregulation of Ku70 expression at 0.2 to 2 uM measured after 24 hrs by Western blot analysis; assay type: functional, cell-based; conditions: dose 0.2-2 µM
Jurkat [5] = experiment: Induction of apoptosis in human Jurkat T cells assessed as upregulation of acetylated Ku70 expression measured after 6 hrs by Western blot analysis; assay type: functional, cell-based; conditions: dose 0.2-2 µM
Jurkat [6] = experiment: Upregulation of alpha-tubulin expression in human Jurkat T cells at 0.1 to 2 uM incubated for 6 hrs by Western blot analysis; assay type: functional, cell-based; conditions: dose 0.1-2 µM
[7] = target: T2, Protein deacetylase HDAC6 (Homo sapiens, UniProt Q9UBN7); experiment: Inhibition of recombinant human N-terminal GST tagged HDAC6 expressed in baculovirus infected Sf9 insect cells using Ac-Leu-Gly-Lys (Ac)-AMC as substrate preincubated for 5 mins followed by substrate addition and measured after 30 mins by fluorescence microtiter plate reader assay
T2 sequence (Q9UBN7 whole entry): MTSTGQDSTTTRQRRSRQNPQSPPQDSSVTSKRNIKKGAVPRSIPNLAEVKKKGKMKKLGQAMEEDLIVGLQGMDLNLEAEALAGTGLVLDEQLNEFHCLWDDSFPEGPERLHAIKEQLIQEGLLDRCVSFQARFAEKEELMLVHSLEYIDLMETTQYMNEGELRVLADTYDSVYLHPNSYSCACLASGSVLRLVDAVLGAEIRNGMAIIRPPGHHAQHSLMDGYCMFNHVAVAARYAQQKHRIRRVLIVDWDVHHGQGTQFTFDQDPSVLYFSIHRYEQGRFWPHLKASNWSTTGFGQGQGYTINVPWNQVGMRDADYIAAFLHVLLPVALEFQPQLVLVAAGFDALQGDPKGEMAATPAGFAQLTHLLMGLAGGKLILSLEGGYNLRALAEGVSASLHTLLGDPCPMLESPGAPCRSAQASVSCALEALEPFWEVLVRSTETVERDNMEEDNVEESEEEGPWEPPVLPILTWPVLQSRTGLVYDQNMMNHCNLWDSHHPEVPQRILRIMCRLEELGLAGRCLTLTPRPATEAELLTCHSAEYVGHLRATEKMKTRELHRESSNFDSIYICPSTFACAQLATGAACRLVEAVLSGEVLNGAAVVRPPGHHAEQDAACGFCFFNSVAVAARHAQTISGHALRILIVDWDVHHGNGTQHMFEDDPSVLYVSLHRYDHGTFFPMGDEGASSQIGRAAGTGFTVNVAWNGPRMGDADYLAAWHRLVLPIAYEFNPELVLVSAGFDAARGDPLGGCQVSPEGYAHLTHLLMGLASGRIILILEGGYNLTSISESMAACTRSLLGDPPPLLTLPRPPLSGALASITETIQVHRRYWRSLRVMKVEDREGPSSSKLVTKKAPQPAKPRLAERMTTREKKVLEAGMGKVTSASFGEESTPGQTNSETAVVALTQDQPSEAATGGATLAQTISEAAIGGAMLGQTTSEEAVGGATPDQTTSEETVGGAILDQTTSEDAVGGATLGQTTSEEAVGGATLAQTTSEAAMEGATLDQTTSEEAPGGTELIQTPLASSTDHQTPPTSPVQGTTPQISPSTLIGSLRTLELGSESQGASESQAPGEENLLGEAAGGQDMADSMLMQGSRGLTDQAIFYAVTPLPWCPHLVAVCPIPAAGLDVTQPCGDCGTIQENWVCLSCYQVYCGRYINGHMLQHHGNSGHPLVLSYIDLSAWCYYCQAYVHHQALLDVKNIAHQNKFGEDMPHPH

MCF7 = experiment: cells; assay type: functional, cell-based; conditions: Homo sapiens, MCF7, 48 h
Description: Antiproliferative activity against human MCF7 cells assessed as inhibition of cell proliferation measured after 48 hrs by MTT assay

Histone deacetylase 3 = Histone deacetylase 3 (Homo sapiens, UniProt O15379); experiment: Inhibition of recombinant human His-tagged HDAC3 expressed in baculovirus insect cells using Ac-Leu-Gly-Lys (Ac)-AMC as substrate preincubated for 5 mins followed by substrate addition and measured after 30 mins by fluorescence microtiter plate reader assay
Sequence of Histone deacetylase 3 (O15379 whole entry): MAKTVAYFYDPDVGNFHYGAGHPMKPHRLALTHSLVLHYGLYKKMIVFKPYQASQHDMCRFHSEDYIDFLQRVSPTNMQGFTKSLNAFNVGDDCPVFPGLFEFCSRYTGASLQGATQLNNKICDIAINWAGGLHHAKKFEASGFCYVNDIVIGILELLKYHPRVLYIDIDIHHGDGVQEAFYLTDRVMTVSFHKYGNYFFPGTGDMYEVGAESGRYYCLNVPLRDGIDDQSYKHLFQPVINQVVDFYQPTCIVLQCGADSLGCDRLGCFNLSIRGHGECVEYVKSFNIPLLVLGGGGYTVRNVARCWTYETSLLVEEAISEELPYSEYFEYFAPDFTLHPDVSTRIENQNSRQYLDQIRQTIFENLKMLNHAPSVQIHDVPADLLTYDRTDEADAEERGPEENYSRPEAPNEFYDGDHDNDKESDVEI

Histone deacetylase = experiment: Inhibition of HDAC in human HeLa nuclear extracts using fluorometric substrate incubated for 30 mins by fluorescence plate reader analysis; assay type: cell-based
Jurkat [8] = experiment: Effect on acetyl-H3 expression level in human Jurkat T cells at 0.1 to 0.8 uM incubated for 6 hrs by Western blot analysis; assay type: functional, cell-based; conditions: dose 0.1-0.8 µM
B16-F10 [9] = experiment: Effect on acetyl-SMC3 expression level in mouse B16-F10 cells at 1 to 8 uM incubated for 6 hrs by Western blot analysis; assay type: functional, cell-based; conditions: dose 1-8 µM
HCT-116 = experiment: cells; assay type: functional, cell-based; conditions: Homo sapiens, HCT-116, 48 h
Description: Antiproliferative activity against human HCT-116 cells assessed as inhibition of cell proliferation measured after 48 hrs by MTT assay

B16-F10 [10] = experiment: Induction of apoptosis in mouse B16-F10 cells assessed as increase in apoptotic cells at 0.5 uM incubated for 48 hrs by Annexin V-FITC/PI staining based flow cytometry analysis relative to control; assay type: functional
[11] = Antiproliferative activity against human YCC-11 cells assessed as cell growth inhibition; assay type: functional, cell-based
Jurkat [12] = experiment: Effect on acetyl-H3 expression level in human Jurkat T cells at 0.1 to 0.4 uM incubated for 6 hrs by Western blot analysis; assay type: functional, cell-based; conditions: dose 0.1-0.4 µM
Jurkat [13] = experiment: Upregulation of acetylated alpha-tubulin expression in human Jurkat T cells incubated for 6 hrs by Western blot analysis; assay type: functional, cell-based; conditions: dose 0.1-2 µM
Jurkat [14] = experiment: Effect on acetyl-SMC3 expression level in human Jurkat T cells at 0.1 to 0.4 uM incubated for 6 hrs by Western blot analysis; assay type: functional, cell-based; conditions: dose 0.1-0.4 µM

Row | IC50 (Histone deacetylase 8) [nM] | IC50 (A549) [nM] | IC50 [7] [nM] | IC50 (MCF7) [nM] | IC50 (Histone deacetylase 3) [nM] | IC50 (Histone deacetylase) [nM] | IC50 (HCT-116) [nM] | SMILES | Activity (B16-F10 [1]) | IC50 at 72 h [2] [nM] | Activity (Jurkat [3]) | Activity (Jurkat [4]) | Activity (Jurkat [5]) | Activity (Jurkat [6]) | Activity (Jurkat [8]) | Activity (B16-F10 [9]) | Activity (B16-F10 [10]) [%] | IC50 [11] [nM] | Activity (Jurkat [12]) | Activity (Jurkat [13]) | Activity (Jurkat [14])
1 | 9020 | 1910 | 31 | 910 | 10400 | 40 | 510 | COc1ccc(-c2ncc(C(=O)NCCCCCCC(=O)NO)s2)c(OC)c1 | Active | 160 | Active | inactive | Dose-Dependent Effect | inactive | Active | Active | 78.98 | 920 | Active | Dose-Dependent Effect | Active
2 | 14600 | 2220 | 48 | 2680 | 7120 | 80 | 1170 | COc1ccc(-c2ncc(C(=O)NCCCCCCC(=O)NO)[nH]2)c(OC)c1 | Active | 230 | Active | inactive | Dose-Dependent Effect | inactive | Active | Active | 38.71 | 1280 | Active | Dose-Dependent Effect | Active

Source: ChEMBL document CHEMBL5042524, “Discovery of Novel Histone Deacetylase 6 (HDAC6) Inhibitors with Enhanced Antitumor Immunity of Anti-PD-L1 Immunotherapy in Melanoma” (J Med Chem, 2022)
